What was measured:
[1] = test system: ADP-induced platelet aggregation; assay: Measurement of ADP-induced platelet aggregation in SD rats (PRP, aggregometer); assay type: in vivo, Rats (male); conditions: single drug 10 mg/kg, light
Procedure: (§1) Animal tests supporting the effects of the present invention were carried out as described in Table 8 below.

SD rats = assay: Bleeding time measurement in SD rats; assay type: in vivo, Rats (male); conditions: 10 mg/kg p.o. once, light, 2 hours after administration
Procedure: as §1

Structure (SMILES)	Platelet aggregation [1]	Bleeding time (SD rats)
CC(=O)Oc1ccccc1C(=O)O [Aspirin, acetylsalicylic acid]	83.5 ± 16.7%	930 ± 296 s
COC(=O)[C@H](c1ccccc1Cl)N1CCc2sccc2C1 [Clopidogrel, methyl (+)-(S)-α-(o-chlorophenyl)-6,7-dihydrothieno[3,2-c]pyridine-5(4H)-acetate]	77.1 ± 20.9%	1177 ± 729 s
